Test results as given in patent publication US12171813B2, “Methods of and compositions for reducing gene expression and/or activity” (Christiana Care Gene Editing Institute, Inc., priority 2021, dated 2024).

Tested on: EGFR gene
Experiment: Screening of SureKill guide RNAs in the EGFR gene for ability to induce indels
Format: cell-based
Conditions: transfections of individual guide RNAs (spCas9 RNP); PDMR human lung adenocarcinoma cells with EGFR L858R; DECODR
Protocol: (§1) Human lung squamous cell carcinoma NCI-H1703 clone 44-25 cells were derived from NCI-H1703 cells (#CRL-5889) which were purchased from ATCC (Manassas, VA, USA). NCI-H1703 clone 44-25 cells contains R34G mutation (C 4 G) in NFE2L2 gene. H1703 clone 44-25 cells were cultured in ATCC formulation RPMI-1640 with 10% FBS. T75 flasks were used and cells were split 1:5 upon reaching 90% confluency. Human lung adenocarcinoma cells (Dist. Lot. No. LG0703-F948-PDC) were acquired from the National Institute of Health's National Cancer Institute's Patient-Derived Models Repository (PDMR). This PDMR cell line contains the L858R mutation (T 4 G) in the EGFR gene. The PDMR cells were maintained in Advanced DMEM/F12 media containing 10% FBS, 0.4 μg/mL hydrocortisone, 0.01 μg/mL EGF Recombinant Human Protein, 24 μg/mL adenine, and 2 mM L-Glutamine. T75s were used and cells were split 1:3 upon reaching 90% confluency. All cultures were maintained in cell culture incubators at 37° C. and 5% CO2.
(§2) Ribonucleoproteins (RNP) are complexed by incubating 250 pmol of purified synthetic gRNA (Synthego Corporation, Redwood City, CA) with 50 pmol of purified spCas9 (Synthego Corporation, Redwood City, CA) at room temperature in nuclease-free 1× TE buffer for 15 minutes.
(§3) Transfections were carried out using the Lonza Nuclefector 4d. Cultures in t75s at 90% confluence were split 1:2 24 hours prior to transfection. RNPs were complexed at 250:50 pmol for 30 minutes prior to transfection, during which time cells were harvested and counted. All reactions were 100 μL and contained 1 e6 cells. Lonza SF solution and Nucleofector program CM-130 were used in all transfections of the H1703 cell line. Lonza SE solution and Nucleofector program CA-137 were used in all transfections of the PDMR. After transfection, 500 μL of media that had been equilibrated to cell culture CO2 and temperature conditions was added to each 100 μL cuvettes. Cuvettes were then placed in the incubator. After 20 minutes, the entire content of each cuvette was seeded into 3 mL of media in a 6 well plate. After 72 hours, samples were dissociated using 200 μL Trypsin 0.25% for 5 minutes. 800 μL culture media was used to quench and split into 1.5 mL tubes each containing 500 μL of the sample. Tubes were spun at 300×g for 5 minutes. One of the tubes was placed in the −20° C. freezer and the other was resuspended in 500 μL of Trizol for RNA extraction and cDNA synthesis.
(§4) All sequencing was performed on the Applied Biosystems SeqStudio. The BigDye Terminator v3.1 Cycle Sequencing Kit was used to prepare samples for sequencing. Resulting sequences were analyzed with DECODR to determine indel rates (Bloh et al., CRISPR J. 4:120-31 (2021)).
Human EGFR is a frequently mutated gene that is associated with cancers. One of the most common mutations is L858R which results in the creation of a novel PAM site, making it a targetable sequence by CRISPR. Like the R34G mutation, the CRISPR designed to target the L858R mutation is not highly efficient on its own. By combining the L858R-targeting CRISPR with another CRISPR of high efficiency in a downstream intronic region, exon skipping can be induced, resulting in a higher efficiency of functional knockout than the L858R targeting CRISPR alone. To find a suitable gRNA to pair with the L858R targeting CRISPR, we selected the intron between exons 21 and 22 (FIG. 6). A series of gRNAs were created in this region and screened for their ability to induce indels, a measure of their activity using DECODR (Bloh et al., CRISPR J. 4:120-31 (2021)) (Table 3).
In Table 3, all sequences are listed from 5′ to 3′. Indel percent, a measure of CRISPR activity, is based on transfections of individual guide RNAs. All guide RNAs, with the exception of L858R, were designed in the intron between exons 21 and 22.

Substance	indel % [%]
EGFR 21-22 SureKill gRNA 2: EGFR intron 21-22 guide RNA GTATTGTTTAACACATGCAG, SEQ ID NO:10 (listed as DNA, chemistry not given here)	2
EGFR 21-22 SureKill gRNA 10A: EGFR intron 21-22 guide RNA GTTTAACACATGCAGGGG, SEQ ID NO:35 (listed as DNA, chemistry not given here)	0
EGFR 21-22 SureKill gRNA 10B: EGFR intron 21-22 guide RNA GTATTGTTTAACACATGCAGGGG, SEQ ID NO:36 (listed as DNA, chemistry not given here)	0
EGFR 21-22 SureKill gRNA 23: EGFR intron 21-22 guide RNA GCATTTTCCTGACACCAGGGACC, SEQ ID NO:47 (listed as DNA, chemistry not given here)	96.15
EGFR 21-22 SureKill gRNA 29: EGFR intron 21-22 guide RNA GTTAAACAATACAGCTAGT, SEQ ID NO:52 (listed as DNA, chemistry not given here)	100

Tested on: NRF2
Experiment: cDNA PCR analysis of exon skipping / full-size transcript in NFE2L2
Format: cell-based, Human
Conditions: gRNA individually applied in the CRISPR reaction; NCI-H1703 clone 44-25 cells
Protocol: After CRISPR reactions, total RNA was prepared, and cDNA synthesized for PCR amplification of the target region from NRF2. PCR-amplified DNA was then analyzed by electrophoresis through a 1% agarose gel for 75 minutes at 80v. DNA was stained with SYBR Safe. Lanes 1 and 10: NEB 2 Log Ladder; Lane 2: Scrambled gRNA; Lane 3: NRF2 3-4 SureKill gRNA 3 alone; Lane 4: NRF2 3-4 SureKill gRNA 12 alone; Lane 5: NRF2 3-4 SureKill gRNA 14 alone; Lane 6: NRF2 3-4 SureKill gRNA 15 alone; Lane 7: NRF2 3-4 SureKill gRNA 21 alone; Lane 8: NRF2 3-4 SureKill gRNA 25 alone; Lane 9: NRF2 3-4 SureKill gRNA 26 alone. On the left side of the image are markers indicating DNA size in bp.
After CRISPR reactions, total RNA was prepared, and cDNA synthesized for PCR amplification of the target region from NRF2. PCR-amplified DNA was then analyzed by electrophoresis through a 1% agarose gel for 75 minutes at 80v. DNA was stained with SYBR Safe. Lane 1: NEB 2 Log Ladder; Lane 2: Scrambled gRNA; Lane 3: R34G gRNA alone; Lane 4: NRF2 3-4 SureKill gRNA 3+R34G gRNA; Lane 5: NRF2 3-4 SureKill gRNA+R34G gRNA; Lane 6: NRF2 3-4 SureKill gRNA 14+R34G gRNA. […]
Transfections were carried out using the Lonza Nuclefector 4d. […] RNPs were complexed at 250:50 pmol for 30 minutes prior to transfection, during which time cells were harvested and counted. […]

Substance	exon skipping (cDNA analysis)
NRF2 3-4 SureKill gRNA 26: NRF2 intron 3-4 guide RNA GCTTACTCATCCCCTGTTGG, SEQ ID NO:28 (listed as DNA, chemistry not given here)	some level of exon skipping

Tested on: NFE2L2 gene
Experiment: Screening of SureKill guide RNAs in the NFE2L2 gene for ability to induce indels
Format: cell-based, Human
Conditions: transfections of individual guide RNAs (spCas9 RNP); NCI-H1703 clone 44-25 cells; DECODR
Protocol: as §1, §2, §3, §4
In some cancers, human NRF2 contains a mutation, R34G, that creates a novel PAM site making it a targetable sequence by CRISPR. By combining the R34G-targeting CRISPR with another CRISPR of high efficiency in a downstream intronic region, exon skipping can be induced, resulting in a higher efficiency of functional knockout than the R34G targeting CRISPR alone. To find a suitable SureKill guide RNA (gRNA) to pair with the R34G targeting CRISPR, we selected the intron between exons 3 and 4 (FIG. 2). A series of gRNAs were created in this region and screened for their ability to induce indels, a measure of their activity (Table 2).
In Table 2, all sequences are listed from 5′ to 3′. Indel %, a measure of CRISPR activity, is based on transfections of individual guide RNAs. All guide RNAs, with the exception of R34G, were designed in the intron between exons 3 and 4.

Substance	indel % [%]
NRF2 3-4 SureKill gRNA 10: NRF2 intron 3-4 guide RNA GGTTTTGTATTGTGTGAA, SEQ ID NO:15 (listed as DNA, chemistry not given here)	32.2
NRF2 3-4 SureKill gRNA 26: NRF2 intron 3-4 guide RNA GCTTACTCATCCCCTGTTGG, SEQ ID NO:28 (listed as DNA, chemistry not given here)	89.65
NRF2 3-4 SureKill gRNA 29a: NRF2 intron 3-4 guide RNA GATTCCATTTTGTTTTGTAG, SEQ ID NO:30 (listed as DNA, chemistry not given here)	11.85
NRF2 3-4 SureKill gRNA 29b: NRF2 intron 3-4 guide RNA GATTTATGAGTCTTCCACCAAC, SEQ ID NO:31 (listed as DNA, chemistry not given here)	11.8
NRF2 3-4 SureKill gRNA 31: NRF2 intron 3-4 guide RNA GTTTGGTGAGTAAAGAGCCAGC, SEQ ID NO:33 (listed as DNA, chemistry not given here)	14.55
NRF2 3-4 SureKill gRNA 32: NRF2 intron 3-4 guide RNA GGTTATGCTGTCCATGTTTC, SEQ ID NO:34 (listed as DNA, chemistry not given here)	47.8
